Data as given in a compilation of properties of binary mixtures (doi:10.1021/je700428f).

Assay: xn = mol fraction of the nth substance listed
Conditions: 100 kPa

CCCO + C=CC[n+]1ccn(C)c1.O=S(=O)([N-]S(=O)(=O)C(F)(F)F)C(F)(F)F
speed of sound (298.15 K, x2 = 0): 1206.5 m/s
speed of sound (338.15 K, x2 = 0): 1071.5 m/s
speed of sound (343.15 K, x2 = 0): 1054.5 m/s

C=CC[n+]1ccn(C)c1.O=S(=O)([N-]S(=O)(=O)C(F)(F)F)C(F)(F)F + CCCO
speed of sound (298.15 K, x1 = 0.2987): 1189.5 m/s
speed of sound (308.15 K, x1 = 0.8024): 1207.5 m/s
speed of sound (313.15 K, x1 = 0.5004): 1173.5 m/s
speed of sound (323.15 K, x1 = 0.2987): 1127.5 m/s

CC[S+](CC)CC.O=S(=O)([N-]S(=O)(=O)C(F)(F)F)C(F)(F)F + CCCO
speed of sound (293.15 K, x1 = 0.0493): 1205.5 m/s
speed of sound (308.15 K, x1 = 0.0493): 1159.5 m/s
speed of sound (323.15 K, x1 = 0.903): 1181.5 m/s

CCCO + CC[S+](CC)CC.O=S(=O)([N-]S(=O)(=O)C(F)(F)F)C(F)(F)F
speed of sound (338.15 K, x2 = 0): 1071.5 m/s
speed of sound (343.15 K, x2 = 0): 1054.5 m/s
